Where a name gives a salt, the structure may show the parent alone.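 Exposure lasted 48 hours, with cells grown in 96-well plates and compounds tested at five concentrations. The concentration for 50% growth inhibition is given as GI50.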 Active and inactive are the calls of the source. No stated cut-off is given here; in the data, active = GI50 up to about 1.1 µM and inactive = higher.
How the values were obtained:
Assay in all cases: DTP human tumour cell line panel, 48 h
[1] = system: HT-29
[2] = system: MDA-N
[3] = system: HCT-116
[4] = system: HOP-92
[5] = system: K562
[6] = system: NCI-H460
[7] = system: MCF7
[8] = system: SF-295
[9] = system: RPMI-8226
[10] = system: SK-MEL-5
[11] = system: SNB-75
[12] = system: M14
[13] = system: OVCAR-4
[14] = system: U-251
[15] = system: PC-3
[16] = system: NCI-H23
[17] = system: HCC 2998
[18] = system: OVCAR-8
[19] = system: HL-60
[20] = system: HOP-62

Structure (SMILES) | GI50 [1] | GI50 [2] | GI50 [3] | GI50 [4] | GI50 [5] | GI50 [6] | GI50 [7] | GI50 [8] | GI50 [9] | GI50 [10] | GI50 [11] | GI50 [12] | GI50 [13] | GI50 [14] | GI50 [15] | GI50 [16] | GI50 [17] | GI50 [18] | GI50 [19] | GI50 [20]
COc1cc2c(cc1O)C(Cc1ccc(OCc3ccccc3)c(OCc3ccccc3)c1)N(C(=O)NCCc1ccccc1)CC2 (configuration not stated) | > 100 µM (inactive) | > 100 µM (inactive) | 45.1 µM (inactive) | > 100 µM (inactive) | 74.3 µM (inactive) | > 100 µM (inactive) | 14.8 µM (inactive) | > 100 µM (inactive) | 10.4 µM (inactive) | 33 µM (inactive) | > 100 µM (inactive) | > 100 µM (inactive) | 78.9 µM (inactive) | > 100 µM (inactive) | 54.7 µM (inactive) | > 100 µM (inactive) | 86.9 µM (inactive) | > 100 µM (inactive) | 37.3 µM (inactive) | > 100 µM (inactive)
Cc1ccccc1C(=O)C#Cc1cn(C2CC(O)C(CO)O2)c(=O)[nH]c1=O (configuration not stated) | > 100 µM (inactive) | > 100 µM (inactive) | > 100 µM (inactive) | 74.1 µM (inactive) | 57 µM (inactive) | > 100 µM (inactive) | > 100 µM (inactive) | > 100 µM (inactive) | > 100 µM (inactive) | > 100 µM (inactive) | > 100 µM (inactive) | > 100 µM (inactive) | > 100 µM (inactive) | > 100 µM (inactive) | > 100 µM (inactive) | > 100 µM (inactive) | > 100 µM (inactive) | > 100 µM (inactive) | > 100 µM (inactive) | > 100 µM (inactive)
O=C(c1ccc(F)cc1)c1cccc(C(=O)c2ccc(F)cc2)n1 | > 100 µM (inactive) | > 100 µM (inactive) | 22.9 µM (inactive) | 15.8 µM (inactive) | > 100 µM (inactive) | > 100 µM (inactive) | > 100 µM (inactive) | 3.4 µM (inactive) | > 100 µM (inactive) | 51.8 µM (inactive) | 12.6 µM (inactive) | 62.2 µM (inactive) | 71.6 µM (inactive) | 19.1 µM (inactive) | > 100 µM (inactive) | 20.2 µM (inactive) | > 100 µM (inactive) | 81.5 µM (inactive) | > 100 µM (inactive) | 20.1 µM (inactive)
O=C1c2ccccc2-c2ccc(N(Cc3ccc(Br)cc3)Cc3ccc(Br)cc3)cc21 | > 100 µM (inactive) | > 100 µM (inactive) | > 100 µM (inactive) | > 100 µM (inactive) | > 100 µM (inactive) | 9.82 µM (inactive) | > 100 µM (inactive) | > 100 µM (inactive) | > 100 µM (inactive) | > 100 µM (inactive) | > 100 µM (inactive) | > 100 µM (inactive) | > 100 µM (inactive) | > 100 µM (inactive) | > 100 µM (inactive) | > 100 µM (inactive) | > 100 µM (inactive) | > 100 µM (inactive) | 20.7 µM (inactive) | > 100 µM (inactive)
CCN(CC)CCn1c(C(C)(C)C)nc2ccccc21 | > 100 µM (inactive) | > 100 µM (inactive) | > 100 µM (inactive) | > 100 µM (inactive) | > 100 µM (inactive) | > 100 µM (inactive) | > 100 µM (inactive) | > 100 µM (inactive) | > 100 µM (inactive) | > 10 µM (inactive) | > 100 µM (inactive) | > 100 µM (inactive) | > 100 µM (inactive) | 30.7 µM (inactive) | > 100 µM (inactive) | > 100 µM (inactive) | > 100 µM (inactive) | > 100 µM (inactive) | > 100 µM (inactive) | > 100 µM (inactive)
C[C@@H]1S[C@H](c2ccccc2F)N2Cc3ccccc3N=C12 | 19.5 µM (inactive) | 20.7 µM (inactive) | 17.1 µM (inactive) | 17.3 µM (inactive) | 22.9 µM (inactive) | 30.9 µM (inactive) | 31.6 µM (inactive) | 26.2 µM (inactive) | 20.6 µM (inactive) | 17 µM (inactive) | 25.6 µM (inactive) | 20.9 µM (inactive) | 21 µM (inactive) | 27.9 µM (inactive) | 22.9 µM (inactive) | 31.3 µM (inactive) | 20 µM (inactive) | 28.4 µM (inactive) | 19.3 µM (inactive) | 29.8 µM (inactive)
O=C1C(Br)=CC2(C=C1Br)CCNC1=C2C2=NCCc3c[nH]c(c32)C1=O | 0.0275 µM (active) | 0.102 µM (active) | 0.0233 µM (active) | 0.0817 µM (active) | 0.028 µM (active) | 0.548 µM (active) | 0.0266 µM (active) | 1.25 µM (inactive) | 0.0355 µM (active) | 0.126 µM (active) | 0.973 µM (active) | 0.0703 µM (active) | 0.0794 µM (active) | 0.398 µM (active) | 0.307 µM (active) | 0.119 µM (active) | 0.506 µM (active) | 0.0736 µM (active) | 0.0129 µM (active) | 2.32 µM (inactive)
O=S1(=O)OCc2ccccc21 | > 100 µM (inactive) | > 100 µM (inactive) | 37.3 µM (inactive) | > 100 µM (inactive) | > 100 µM (inactive) | 34.4 µM (inactive) | > 100 µM (inactive) | > 100 µM (inactive) | 61.1 µM (inactive) | > 100 µM (inactive) | 42.8 µM (inactive) | > 100 µM (inactive) | 51.1 µM (inactive) | > 100 µM (inactive) | > 100 µM (inactive) | > 100 µM (inactive) | > 100 µM (inactive) | > 100 µM (inactive) | 59.3 µM (inactive) | 10.2 µM (inactive)
CC(=O)N(C)c1ccc(Nc2cc(C)nc3ccc4nc[nH]c4c23)cc1 [ACODAZOLE HYDROCHLORIDE] | 11.3 µM (inactive) | 10.5 µM (inactive) | 4.55 µM (inactive) | 2.55 µM (inactive) | 8.07 µM (inactive) | 2.59 µM (inactive) | 3.66 µM (inactive) | 14.1 µM (inactive) | 8.07 µM (inactive) | 7.28 µM (inactive) | 9.33 µM (inactive) | 10.8 µM (inactive) | 11.7 µM (inactive) | 8.09 µM (inactive) | 5.09 µM (inactive) | 10.2 µM (inactive) | 10.3 µM (inactive) | 5.97 µM (inactive) | 7.03 µM (inactive) | 6.19 µM (inactive)
Clc1cccc(-c2sc(-c3cccs3)cc2Cc2cccs2)c1 | > 10 µM (inactive) | > 10 µM (inactive) | > 10 µM (inactive) | > 10 µM (inactive) | > 10 µM (inactive) | > 10 µM (inactive) | 3.71 µM (inactive) | > 10 µM (inactive) | > 10 µM (inactive) | > 10 µM (inactive) | > 10 µM (inactive) | > 10 µM (inactive) | > 10 µM (inactive) | – | > 10 µM (inactive) | > 10 µM (inactive) | > 10 µM (inactive) | > 10 µM (inactive) | > 10 µM (inactive) | > 10 µM (inactive)
Cc1ccc(S[C@@](C=O)(NC(=O)OCc2ccccc2)C(F)(F)F)cc1 | 16.9 µM (inactive) | 22.8 µM (inactive) | 16.1 µM (inactive) | 22.9 µM (inactive) | 28.6 µM (inactive) | 29.9 µM (inactive) | 26.7 µM (inactive) | 31 µM (inactive) | 20.6 µM (inactive) | 23.7 µM (inactive) | 22.5 µM (inactive) | 29.1 µM (inactive) | 44.9 µM (inactive) | 17.6 µM (inactive) | 18.6 µM (inactive) | 19.5 µM (inactive) | 37.8 µM (inactive) | 20.7 µM (inactive) | 16.5 µM (inactive) | 29 µM (inactive)
Nn1c(-c2ccccc2)nn(C(=O)c2ccccc2)c1=O | > 100 µM (inactive) | > 100 µM (inactive) | > 100 µM (inactive) | > 100 µM (inactive) | > 100 µM (inactive) | > 100 µM (inactive) | > 100 µM (inactive) | > 100 µM (inactive) | > 100 µM (inactive) | > 100 µM (inactive) | > 100 µM (inactive) | > 100 µM (inactive) | > 100 µM (inactive) | > 100 µM (inactive) | > 100 µM (inactive) | > 100 µM (inactive) | > 100 µM (inactive) | > 100 µM (inactive) | > 100 µM (inactive) | > 100 µM (inactive)
CCCCOCCOCCOC1=C(Cl)C(=O)c2c(O)ccc(O)c2C1=O | 0.484 µM (active) | 0.728 µM (active) | 0.401 µM (active) | 0.199 µM (active) | 0.0419 µM (active) | 1.85 µM (inactive) | 0.218 µM (active) | 1.73 µM (inactive) | 0.212 µM (active) | 0.565 µM (active) | 0.382 µM (active) | 0.161 µM (active) | 0.359 µM (active) | 1.67 µM (inactive) | 1.62 µM (inactive) | 0.984 µM (active) | 2.1 µM (inactive) | 1.37 µM (inactive) | 0.144 µM (active) | 1.19 µM (inactive)
CC(C)CC(NC(=O)C(COc1ccc([N+](=O)[O-])cc1)Cc1ccccc1)C(=O)Nc1ccccc1 (configuration not stated) | – | 10.3 µM (inactive) | 22.2 µM (inactive) | 13.3 µM (inactive) | 19.2 µM (inactive) | 4.29 µM (inactive) | 25.8 µM (inactive) | 11.2 µM (inactive) | 40.5 µM (inactive) | 7.83 µM (inactive) | 2.38 µM (inactive) | 9.53 µM (inactive) | 2.35 µM (inactive) | 12.6 µM (inactive) | 38.7 µM (inactive) | 13 µM (inactive) | 13.1 µM (inactive) | 6.98 µM (inactive) | 10.3 µM (inactive) | –
